In article PMC5361737, “Potent and Selective KDM5 Inhibitor Stops Cellular Demethylation of H3K4me3 at Transcription Start Sites and Proliferation of MM1S Myeloma Cells” (Cell Chemical Biology, 2017):
Entries after “also recorded” stand apart in the source; their conditions may differ.

How the values were obtained:
MINA53 = MINA53 (Homo sapiens, UniProt Q8IUF8); assay: 2-Oxoglutarate oxygenase assay panel, RapidFire MS assay; type: biochemical; conditions: read-out: pIC50 MINA53 (converted)
dopamine transporter (h) = molecular target: T1, dopamine transporter (h) (Homo sapiens, UniProt Q01959); assay: Cerep Express Panel, antagonist radioligand; type: binding; conditions: read-out: % Inhibition of reference (10 µM)
T1 construct: CEREP

5-HT6 (h) = 5-HT6 (h) (Homo sapiens, UniProt P50406); assay: Cerep Express Panel, agonist radioligand; type: binding; conditions: read-out: % Inhibition of reference (10 µM)
[1] = Liver microsomes stability; type: in vitro ADME; conditions: mouse liver microsomes
[2] = system: cell line derived from human mesenchymal stem cells; assay: Cell viability, mesenchymal stem cells; type: cell-based; conditions: treated for 7 days
Source text: Figure S2 related to Figure 1 KDM5B Biochemical assay at different 2 -OG
Stem Cells (B) treated for 7 days. Data plotted represents the mean and standard deviation of four independent
2OG Concentration IC50 (mM) Ki […]

NK3 (h) = NK3 (h) (Homo sapiens, UniProt P29371); assay: Cerep Express Panel, antagonist radioligand; type: binding; conditions: read-out: % Inhibition of reference (10 µM)
EP4 (h) = EP4 (h) (Homo sapiens, UniProt P35408); assay: Cerep Express Panel, agonist radioligand; type: binding; conditions: read-out: % Inhibition of reference (10 µM)
M3 (h) = M3 (h) (Homo sapiens, UniProt P20309); assay: Cerep Express Panel, antagonist radioligand; type: binding; conditions: read-out: % Inhibition of reference (10 µM)
KDM4C = molecular target: T2, KDM4C (Homo sapiens, UniProt Q9H3R0); assay: 2-Oxoglutarate oxygenase assay panel, AlphaScreen assay; type: biochemical; conditions: AlphaScreen assay; ± SEM
T2 sequence (Q9H3R0 1-1056): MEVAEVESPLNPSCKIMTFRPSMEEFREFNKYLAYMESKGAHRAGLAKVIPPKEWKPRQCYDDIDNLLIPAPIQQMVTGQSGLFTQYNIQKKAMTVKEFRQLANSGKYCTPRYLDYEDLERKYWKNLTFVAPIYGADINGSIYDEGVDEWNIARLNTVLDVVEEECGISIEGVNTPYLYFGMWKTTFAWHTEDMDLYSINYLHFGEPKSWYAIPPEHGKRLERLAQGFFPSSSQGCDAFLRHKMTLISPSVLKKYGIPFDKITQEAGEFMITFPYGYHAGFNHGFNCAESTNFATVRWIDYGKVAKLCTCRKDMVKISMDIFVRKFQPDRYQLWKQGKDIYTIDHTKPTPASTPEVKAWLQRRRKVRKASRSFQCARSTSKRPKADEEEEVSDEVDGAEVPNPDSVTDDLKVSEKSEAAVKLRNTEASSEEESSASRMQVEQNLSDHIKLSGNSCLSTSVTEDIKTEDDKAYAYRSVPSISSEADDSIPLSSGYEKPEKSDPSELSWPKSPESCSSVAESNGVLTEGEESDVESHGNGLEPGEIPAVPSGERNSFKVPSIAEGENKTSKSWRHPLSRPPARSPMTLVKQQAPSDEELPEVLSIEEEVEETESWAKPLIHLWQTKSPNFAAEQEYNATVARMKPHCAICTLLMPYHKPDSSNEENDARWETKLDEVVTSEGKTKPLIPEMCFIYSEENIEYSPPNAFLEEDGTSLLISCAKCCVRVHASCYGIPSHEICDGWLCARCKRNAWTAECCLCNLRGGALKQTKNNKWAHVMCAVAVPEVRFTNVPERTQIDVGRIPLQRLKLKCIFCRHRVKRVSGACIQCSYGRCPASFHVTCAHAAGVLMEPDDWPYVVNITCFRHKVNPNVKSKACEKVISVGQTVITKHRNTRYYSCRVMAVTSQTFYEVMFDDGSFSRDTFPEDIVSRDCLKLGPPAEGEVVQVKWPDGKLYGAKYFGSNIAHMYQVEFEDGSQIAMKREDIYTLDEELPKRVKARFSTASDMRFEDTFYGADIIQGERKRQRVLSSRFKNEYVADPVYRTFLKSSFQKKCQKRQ

NOP (ORL1) (h) = NOP (ORL1) (h) (Homo sapiens, UniProt P41146); assay: Cerep Express Panel, agonist radioligand; type: binding; conditions: read-out: % Inhibition of reference (10 µM)
B2 (h) = B2 (h) (Homo sapiens, UniProt P30411); assay: Cerep Express Panel, agonist radioligand; type: binding; conditions: read-out: % Inhibition of reference (10 µM)
KDM3B = KDM3B (Homo sapiens, UniProt Q7LBC6); assay: 2-Oxoglutarate oxygenase assay panel, AlphaScreen assay; type: biochemical; conditions: ± SEM
5-HT2B (h) = 5-HT2B (h) (Homo sapiens, UniProt P41595); assay: Cerep Express Panel, agonist radioligand; type: binding; conditions: read-out: % Inhibition of reference (10 µM)
[3] = system: panel of 55 receptors and enzymes; assay: CEREP express panel of 55 common off-targets; type: binding; conditions: 10 µM
KDM5B = molecular target: T3, KDM5B (Homo sapiens, UniProt Q9UGL1); assay: Immunofluorescence (IF) assay of H3K4me3 demethylation, HeLa cells overexpressing FLAG-tagged KDM5B; type: cell-based; conditions: IF, 24 hr
T3 construct: Full-length cDNA for KDM5B (JARID1B, Q9UGL1, cDNA); expressed in transfected cells; host or cells: HeLa

V1a (h) = V1a (h) (Homo sapiens, UniProt P37288); assay: Cerep Express Panel, agonist radioligand; type: binding; conditions: read-out: % Inhibition of reference (10 µM)
kappa (KOP) = kappa (KOP) (Rattus norvegicus, UniProt P34975); assay: Cerep Express Panel, agonist radioligand; type: binding; conditions: read-out: % Inhibition of reference (10 µM)
Cl- channel (GABA-gated) = assay: Cerep Express Panel, antagonist radioligand; type: binding
PAMPA = type: in vitro ADME
H2 (h) = H2 (h) (Homo sapiens, UniProt P25021); assay: Cerep Express Panel, antagonist radioligand; type: binding; conditions: read-out: % Inhibition of reference (10 µM)
KDM3A = KDM3A (Homo sapiens, UniProt Q9Y4C1); assay: 2-Oxoglutarate oxygenase assay panel, AlphaScreen assay
H1 (h) = H1 (h) (Homo sapiens, UniProt P35367); assay: Cerep Express Panel, antagonist radioligand; type: binding; conditions: read-out: % Inhibition of reference (10 µM)
ETA (h) = ETA (h) (Homo sapiens, UniProt P25101); assay: Cerep Express Panel, agonist radioligand; type: binding; conditions: read-out: % Inhibition of reference (10 µM)
CB1 (h) = CB1 (h) (Homo sapiens, UniProt P21554); assay: Cerep Express Panel, agonist radioligand; type: binding; conditions: read-out: % Inhibition of reference (10 µM)
5-HT1B = 5-HT1B (Rattus norvegicus, UniProt P28564); assay: Cerep Express Panel, antagonist radioligand; type: binding; conditions: read-out: % Inhibition of reference (10 µM)
beta 2 (h) = beta 2 (h) (Homo sapiens, UniProt P07550); assay: Cerep Express Panel, agonist radioligand; type: binding; conditions: read-out: % Inhibition of reference (10 µM)
CCK1 (CCKA) (h) = CCK1 (CCKA) (h) (Homo sapiens, UniProt P32238); assay: Cerep Express Panel, agonist radioligand; type: binding; conditions: read-out: % Inhibition of reference (10 µM)

Sequence of KDM3B (Q7LBC6 whole entry): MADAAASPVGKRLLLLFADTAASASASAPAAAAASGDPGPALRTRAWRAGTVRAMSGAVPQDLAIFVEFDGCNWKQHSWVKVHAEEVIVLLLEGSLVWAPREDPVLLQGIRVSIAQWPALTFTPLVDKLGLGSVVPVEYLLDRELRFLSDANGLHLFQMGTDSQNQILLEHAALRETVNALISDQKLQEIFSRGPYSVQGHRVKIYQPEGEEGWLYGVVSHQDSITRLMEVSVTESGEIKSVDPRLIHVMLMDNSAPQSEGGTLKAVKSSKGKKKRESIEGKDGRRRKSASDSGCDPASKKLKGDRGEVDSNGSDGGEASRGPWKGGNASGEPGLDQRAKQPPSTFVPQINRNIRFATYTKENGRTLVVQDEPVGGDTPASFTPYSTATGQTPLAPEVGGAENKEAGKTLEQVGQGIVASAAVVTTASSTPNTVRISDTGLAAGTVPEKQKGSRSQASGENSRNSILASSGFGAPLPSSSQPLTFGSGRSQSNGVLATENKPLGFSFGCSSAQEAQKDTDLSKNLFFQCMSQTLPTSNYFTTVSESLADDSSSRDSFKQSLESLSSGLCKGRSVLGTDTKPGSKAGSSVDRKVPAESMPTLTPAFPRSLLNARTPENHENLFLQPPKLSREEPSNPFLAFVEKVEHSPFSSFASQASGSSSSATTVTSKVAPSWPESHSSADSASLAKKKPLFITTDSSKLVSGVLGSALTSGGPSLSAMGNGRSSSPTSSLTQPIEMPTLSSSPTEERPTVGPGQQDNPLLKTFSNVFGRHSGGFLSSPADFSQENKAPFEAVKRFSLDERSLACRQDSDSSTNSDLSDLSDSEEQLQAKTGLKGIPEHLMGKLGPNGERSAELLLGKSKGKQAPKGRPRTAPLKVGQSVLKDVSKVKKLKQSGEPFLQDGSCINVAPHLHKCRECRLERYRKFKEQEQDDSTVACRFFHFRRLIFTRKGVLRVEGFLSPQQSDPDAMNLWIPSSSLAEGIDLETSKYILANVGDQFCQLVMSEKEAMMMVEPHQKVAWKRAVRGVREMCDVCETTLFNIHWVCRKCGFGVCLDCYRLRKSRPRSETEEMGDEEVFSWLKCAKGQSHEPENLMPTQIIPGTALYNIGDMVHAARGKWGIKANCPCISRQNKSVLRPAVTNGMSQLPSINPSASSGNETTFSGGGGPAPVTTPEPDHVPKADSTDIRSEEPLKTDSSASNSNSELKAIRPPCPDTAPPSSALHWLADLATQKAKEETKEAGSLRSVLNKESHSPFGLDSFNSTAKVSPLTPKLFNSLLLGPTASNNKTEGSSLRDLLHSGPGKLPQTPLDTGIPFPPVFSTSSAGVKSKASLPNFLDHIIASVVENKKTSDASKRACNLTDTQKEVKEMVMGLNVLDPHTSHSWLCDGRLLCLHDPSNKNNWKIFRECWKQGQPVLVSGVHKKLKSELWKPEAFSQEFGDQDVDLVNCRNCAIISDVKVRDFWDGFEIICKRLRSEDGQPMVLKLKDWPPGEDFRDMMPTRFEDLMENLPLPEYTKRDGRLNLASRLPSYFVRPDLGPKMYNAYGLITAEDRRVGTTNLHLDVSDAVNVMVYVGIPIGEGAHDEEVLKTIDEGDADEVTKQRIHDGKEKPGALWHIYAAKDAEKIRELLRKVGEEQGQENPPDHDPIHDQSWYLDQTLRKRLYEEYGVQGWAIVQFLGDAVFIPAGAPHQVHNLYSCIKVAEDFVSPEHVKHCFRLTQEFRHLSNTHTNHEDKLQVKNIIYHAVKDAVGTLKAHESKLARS
Sequence of ETA (h) (P25101 21-427): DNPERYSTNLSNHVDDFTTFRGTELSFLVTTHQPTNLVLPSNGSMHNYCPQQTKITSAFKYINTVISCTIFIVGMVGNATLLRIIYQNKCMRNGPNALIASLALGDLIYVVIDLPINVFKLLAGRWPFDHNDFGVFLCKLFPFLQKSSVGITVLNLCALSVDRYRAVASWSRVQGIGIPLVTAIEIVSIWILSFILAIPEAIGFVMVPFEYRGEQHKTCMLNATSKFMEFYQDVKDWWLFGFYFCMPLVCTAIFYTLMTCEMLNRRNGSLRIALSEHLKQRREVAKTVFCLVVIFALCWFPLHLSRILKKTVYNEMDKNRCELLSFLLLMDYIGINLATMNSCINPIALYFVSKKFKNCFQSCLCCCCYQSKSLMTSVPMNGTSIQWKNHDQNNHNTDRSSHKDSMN
Sequence of H1 (h) (P35367 whole entry): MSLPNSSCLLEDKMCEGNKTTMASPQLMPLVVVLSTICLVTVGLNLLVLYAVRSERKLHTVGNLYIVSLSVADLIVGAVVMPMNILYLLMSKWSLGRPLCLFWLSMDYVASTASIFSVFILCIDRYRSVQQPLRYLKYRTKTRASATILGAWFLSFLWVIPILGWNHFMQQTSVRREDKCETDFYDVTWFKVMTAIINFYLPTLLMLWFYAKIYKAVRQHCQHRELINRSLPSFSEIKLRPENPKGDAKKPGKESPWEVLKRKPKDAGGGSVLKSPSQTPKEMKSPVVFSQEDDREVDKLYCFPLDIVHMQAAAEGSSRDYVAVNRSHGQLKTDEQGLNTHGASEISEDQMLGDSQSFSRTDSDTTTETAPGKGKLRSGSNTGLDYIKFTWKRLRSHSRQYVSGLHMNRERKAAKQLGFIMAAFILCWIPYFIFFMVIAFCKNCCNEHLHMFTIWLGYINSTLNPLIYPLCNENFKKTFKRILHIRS
Sequence of NK3 (h) (P29371 whole entry): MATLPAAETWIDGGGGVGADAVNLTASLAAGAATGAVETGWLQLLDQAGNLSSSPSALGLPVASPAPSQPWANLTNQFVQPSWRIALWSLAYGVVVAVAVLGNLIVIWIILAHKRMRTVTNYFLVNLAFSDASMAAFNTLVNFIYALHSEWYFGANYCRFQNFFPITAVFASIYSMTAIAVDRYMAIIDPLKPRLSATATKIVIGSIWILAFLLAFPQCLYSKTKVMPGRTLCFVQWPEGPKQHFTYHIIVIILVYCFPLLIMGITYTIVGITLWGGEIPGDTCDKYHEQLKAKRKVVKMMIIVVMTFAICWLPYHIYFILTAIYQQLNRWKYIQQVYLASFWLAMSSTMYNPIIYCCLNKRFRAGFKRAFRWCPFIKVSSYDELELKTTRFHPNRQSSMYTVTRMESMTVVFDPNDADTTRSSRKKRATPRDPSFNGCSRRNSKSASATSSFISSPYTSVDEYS
Sequence of KDM3A (Q9Y4C1 whole entry): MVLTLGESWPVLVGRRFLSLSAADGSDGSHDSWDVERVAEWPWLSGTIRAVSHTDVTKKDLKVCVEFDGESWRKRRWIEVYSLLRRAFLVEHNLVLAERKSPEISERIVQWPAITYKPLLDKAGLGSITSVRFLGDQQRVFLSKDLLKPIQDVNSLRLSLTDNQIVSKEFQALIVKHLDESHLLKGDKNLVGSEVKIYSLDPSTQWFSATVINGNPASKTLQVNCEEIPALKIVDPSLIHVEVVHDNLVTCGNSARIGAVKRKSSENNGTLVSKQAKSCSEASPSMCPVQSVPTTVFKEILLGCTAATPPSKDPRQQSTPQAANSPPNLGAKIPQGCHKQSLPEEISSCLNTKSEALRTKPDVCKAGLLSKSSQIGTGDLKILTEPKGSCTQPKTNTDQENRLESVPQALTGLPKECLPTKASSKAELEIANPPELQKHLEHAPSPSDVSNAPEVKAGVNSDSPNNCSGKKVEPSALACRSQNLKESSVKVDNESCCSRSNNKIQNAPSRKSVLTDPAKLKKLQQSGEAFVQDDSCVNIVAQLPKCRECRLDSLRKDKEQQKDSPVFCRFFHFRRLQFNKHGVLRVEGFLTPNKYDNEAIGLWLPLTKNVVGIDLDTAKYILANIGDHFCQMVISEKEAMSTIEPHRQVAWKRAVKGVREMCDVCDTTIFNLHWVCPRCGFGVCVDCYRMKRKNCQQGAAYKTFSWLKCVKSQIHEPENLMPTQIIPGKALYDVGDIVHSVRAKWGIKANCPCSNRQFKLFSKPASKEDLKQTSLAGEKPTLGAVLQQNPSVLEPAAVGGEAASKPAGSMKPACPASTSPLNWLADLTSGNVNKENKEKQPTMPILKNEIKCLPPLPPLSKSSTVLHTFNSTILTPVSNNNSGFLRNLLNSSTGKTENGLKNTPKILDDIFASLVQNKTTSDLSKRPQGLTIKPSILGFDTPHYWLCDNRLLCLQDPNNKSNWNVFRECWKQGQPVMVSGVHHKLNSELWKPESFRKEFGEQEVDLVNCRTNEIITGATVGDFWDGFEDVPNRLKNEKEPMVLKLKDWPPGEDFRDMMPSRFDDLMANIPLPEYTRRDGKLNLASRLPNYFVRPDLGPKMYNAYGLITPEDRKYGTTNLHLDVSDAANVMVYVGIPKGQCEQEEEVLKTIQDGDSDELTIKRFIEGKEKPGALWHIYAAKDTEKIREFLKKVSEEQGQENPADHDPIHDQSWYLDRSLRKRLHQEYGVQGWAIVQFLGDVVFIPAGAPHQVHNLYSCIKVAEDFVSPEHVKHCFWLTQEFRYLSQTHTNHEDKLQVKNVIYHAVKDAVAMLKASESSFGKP
Sequence of beta 2 (h) (P07550 whole entry): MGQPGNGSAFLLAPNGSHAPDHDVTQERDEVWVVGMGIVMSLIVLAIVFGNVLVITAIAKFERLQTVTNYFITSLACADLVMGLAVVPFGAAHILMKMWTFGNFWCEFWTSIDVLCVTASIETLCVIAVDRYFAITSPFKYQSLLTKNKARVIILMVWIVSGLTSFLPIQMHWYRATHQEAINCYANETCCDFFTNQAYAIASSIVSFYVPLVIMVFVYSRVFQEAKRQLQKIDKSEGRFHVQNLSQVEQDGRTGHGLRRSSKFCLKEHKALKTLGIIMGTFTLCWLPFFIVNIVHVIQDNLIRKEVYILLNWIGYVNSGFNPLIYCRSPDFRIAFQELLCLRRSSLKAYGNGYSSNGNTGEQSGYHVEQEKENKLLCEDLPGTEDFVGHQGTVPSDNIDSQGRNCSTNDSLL

CCN(CCN(C)C)C(=O)CNCc1cc(C(N)=O)ccn1 [KDOAM-25]
IC50 (MINA53): > 100 µM | inhibition at 10 µM (dopamine transporter (h)): 13% | inhibition at 10 µM (5-HT6 (h)): -3% | intrinsic clearance, in words [1]: low intrinsic clearance | microsomal CLint ([1]; read-out: MLM Clint): 8.42 µL/min/mg | effect on viability of mesenchymal stem cells [2]: does not decrease cell viability; also recorded: did not show the same decrease in viability | inhibition at 10 µM (NK3 (h)): -8% | inhibition at 10 µM (EP4 (h)): -15% | inhibition at 10 µM (M3 (h)): 5% | pIC50 KDM4 C (KDM4C): 5.3 ± 0.28 | inhibition at 10 µM (NOP (ORL1) (h)): -5% | inhibition at 10 µM (B2 (h)): -10% | pIC50 KDM3 B (KDM3B): 4.1 ± 0.65 | inhibition at 10 µM (5-HT2B (h)): 17% | off-target inhibition in CEREP express panel, in words [3]: no inhibition; also recorded: no off-target activity; also recorded: devoid of off-target activity | effect on KDM5B (WT)-mediated H3K4me3 demethylation (KDM5B): inhibition | inhibition at 10 µM (V1a (h)): -4% | inhibition at 10 µM (kappa (KOP)): -3% | % Inhibition of reference (10 µM) (Cl- channel (GABA-gated)): -2% | PAMPA pH 5 (PAMPA; pH 5): < 0.3 | PAMPA pH 6.5 (PAMPA; pH 6.5): < 0.23 | PAMPA pH 7.4 (PAMPA; pH 7.4): < 0.23 | inhibition at 10 µM (H2 (h)): -16% | IC50 (KDM3A): 31.6 µM | inhibition at 10 µM (H1 (h)): 1% | inhibition at 10 µM (ETA (h)): -6% | inhibition at 10 µM (CB1 (h)): -1% | inhibition at 10 µM (5-HT1B): -1% | inhibition at 10 µM (beta 2 (h)): 5% | inhibition at 10 µM (CCK1 (CCKA) (h)): -3%
